Assay results reported in US8034940B2, “Modulators of glucocorticoid receptor, AP-1, and/or NF-κB activity and use thereof” (Bristol-Myers Squibb Company, priority 2006, dated 2011).
Like-named read-outs stand apart in the source and are kept apart here.

Tested on: AP-1 induced transcriptional activity
Test: Cellular Transrepressional Assay (AP-1 luciferase reporter, PMA-activated A549 cells)
Assay type: cell-based
Settings: for AP-1 Max % inh (Cellular Transrepression Assay) / Emax: maximum inhibition; for Emax: A549, 7 h, read-out: AP-1 Max % inh (Cellular Transrepression Assay)
Procedure: Cellular Transrepressional Assay
To measure the ability of test molecules to inhibit AP-1 induced transcriptional activity we utilized an A549 cell which was stably transfected with a plasmid containing 7× AP-1 DNA binding sites (pAP-1-Luc plasmid, Stratagene Co. La Jolla, Calif.) followed by the gene for luciferase. Cells were activated with 10 ng/ml of […] (PMA) plus or minus test molecules for 7 hours. After 7 hours a luciferase reagent was added to measure luciferase enzymatic activity in the cell. After a 10 minute incubation of luciferase reagent with cells, luminescence was measured in a TopCount luminescence counter. Repression of AP-1 activity was calculated as the percentage decrease in the signal induced by PMA alone. Test molecules were analyzed in the concentration range from 0.1 nM to 40 μM. EC50s were determined by using standard curve fitting methods such as Excel fit (Microsoft Co.).

[1] = Homo sapiens, Cellular Transrepression Assay
[2] = Homo sapiens, A549, Cellular Transrepression Assay

EC50 (Cellular Transrepression Assay)	EC50 [2]	SMILES	AP-1 Max % inh (Cellular Transrepression Assay) (Cellular Transrepression Assay)	Emax [1]	EC50 (Homo sapiens, A549, read-out: AP-1 EC50, nM (Cellular Transrepression Assay))
	67.3 nM	CCOC(=O)c1nnc(NC(=O)C(C)(C)[C@H]2c3ccccc3Oc3nc(-c4ccc(C(=O)N5CCCC5)c(F)c4)ccc32)s1 [Example 417]		54.1%	
	579 nM	CN(C)C(=O)c1ccc(-c2ccc3c(n2)Oc2ccccc2[C@H]3C2(C(=O)Nc3nncs3)CCC2)cc1 (single isomer, unassigned) [Example 481]		33.8%	
247 nM		Cc1csc(NC(=O)C(C)(C)C2c3ccccc3Oc3nc(-c4ccc(C(=O)N(C)C)cc4)ccc32)n1 (stereo not drawn) [Example 363]	47.74%		
	117 nM	CC(C)(C(=O)Nc1ncc(S(C)(=O)=O)s1)[C@H]1c2ccccc2Oc2nc(-c3ccc(C(=O)N4CCCC4)c(F)c3)ccc21 [Example 426]		31.8%	
	84.1 nM	CC(C)(C(=O)Nc1nnc(C(=O)NC2CC2)s1)[C@H]1c2ccccc2Oc2nc(-c3ccc(C(=O)N4CCCC4)c(F)c3)ccc21 [Example 422]		41.6%	
	30.3 nM	Cc1nnc(NC(=O)C(C)(C)[C@H]2c3ccccc3Oc3nc(-c4ccc(C(=O)N5CCCC5)cc4)ccc32)s1 [Example 460]		56.9%	
	84.4 nM	CSc1nnc(NC(=O)C(C)(C)[C@H]2c3ccccc3Oc3nc(-c4ccc(C(=O)N5CCCC5)c(F)c4)ccc32)s1 [Example 425]		49.9%	
	95.4 nM	CCc1nnc(NC(=O)C(C)(C)[C@H]2c3ccccc3Oc3nc(-c4ccc(C(=O)N(C)C)cc4)ccc32)s1 [Example 447]		53%	
	15 nM	CCN(C)C(=O)c1ccc(-c2ccc3c(n2)Oc2ccccc2[C@@H]3C(C)(C)C(=O)Nc2ncns2)cc1 [Example 467]		57.5%	
	45.3 nM	CC(C)(C(=O)Nc1nncs1)[C@H]1c2ccccc2Oc2nc(-c3ccc(C(=O)N4CCOCC4)s3)ccc21 [Example 463]		26.2%	
	53.4 nM	Cc1nnc(NC(=O)C(C)(C)[C@H]2c3ccccc3Oc3nc(-c4ccc(OC(C)C)cc4)ccc32)s1 [Example 461]		50.8%	
	480 nM	CC(C)(C(=O)NC#N)[C@H]1c2ccccc2Oc2nc(-c3ccc(C(=O)N4CCCC4)c(F)c3)ccc21 [Example 398]		50%	
	26.9 nM	Cc1nnc(NC(=O)C(C)(C)[C@H]2c3ccccc3Oc3nc(-c4ccc(C(=O)N5CCOCC5)c(F)c4)ccc32)s1 [Example 472]		47%	
	42.4 nM	CN(C)C(=O)c1ccc(-c2ccc3c(n2)Oc2ccccc2C3C2(C(=O)Nc3ncns3)CCCC2)cc1 (stereo not drawn) [Example 485]		38.9%	
74 nM		CC(C)(C(=O)Nc1nncs1)C1c2ccccc2Oc2cc(OC(=O)NCc3ccc(Cl)c(Cl)c3)ccc21 (stereo not drawn) [Example 379]	51.21%		
	41.5 nM	CC(C)(C(=O)Nc1ncns1)[C@H]1c2ccccc2Oc2nc(-c3ccc(C(=O)N4CCCC4)c(F)c3)ccc21 [Example 456]		45.8%	
	85.4 nM	Cc1nnc(NC(=O)C(C)(C)[C@H]2c3ccccc3Oc3nc(-c4ccc(C(=O)N(C)C)c(F)c4)ccc32)s1 [Example 474]		37.9%	
	30.3 nM	CC(C)(C(=O)Nc1nnc(N)s1)[C@H]1c2ccccc2Oc2nc(-c3ccc(C(=O)N4CCCC4)c(F)c3)ccc21 [Example 428]		26.9%	
	161 nM	CC(C)(C(=O)Nc1ncc([N+](=O)[O-])s1)[C@H]1c2ccccc2Oc2nc(-c3ccc(C(=O)N4CCCC4)c(F)c3)ccc21 [Example 411]		58.5%	
	25.3 nM	CCN(C)C(=O)c1ccc(-c2ccc3c(n2)Oc2ccccc2[C@@H]3C(C)(C)C(=O)Nc2ncns2)cc1F [Example 454]		49.5%	

The remaining lines, values behind:

SMILES	EC50 (Cellular Transrepression Assay)	EC50 [2]	AP-1 Max % inh (Cellular Transrepression Assay) (Cellular Transrepression Assay)	Emax [1]	EC50 (Homo sapiens, A549, read-out: AP-1 EC50, nM (Cellular Transrepression Assay))
CCCCc1ccc(-c2ccc3c(n2)Oc2ccccc2C3C(C)(C)C(=O)Nc2nncs2)c(C)c1 (stereo not drawn) [Example 222]	100 nM		61.88%		
CN(C)C(=O)c1ccc(-c2ccc3c(n2)Oc2ccccc2C3C(C)(C)C(=O)Nc2nncs2)cc1 (stereo not drawn) [Example 172]	13.2 nM		59.04%		
CCc1ccc(-c2ccc3c(n2)Oc2ccccc2C3C(C)(C)C(=O)Nc2nncs2)cc1 (stereo not drawn) [Example 206]	21.3 nM		54.73%		
CCCOc1ccc(-c2ccc3c(n2)Oc2ccccc2C3C(C)(C)C(=O)Nc2nncs2)cc1 (stereo not drawn) [Example 217]	41 nM		45.81%		
COc1ccc2c(c1)Oc1ccccc1C2C(C)(C)C(=O)Nc1nc(Cc2ccc(-c3ccncc3)cc2)cs1 (stereo not drawn) [Example 51]		6.87 nM		77.9%	
CC(C)(C(=O)Nc1nc(Cc2ccc(-c3ccncc3)cc2)cs1)C1c2ccccc2Oc2ncccc21 (stereo not drawn) [Example 64]		19.9 nM		79.3%	
CC(C)(C(=O)Nc1nncs1)C1c2ccccc2Oc2nc(-c3ccc(Oc4ccccc4)cc3)ccc21 (stereo not drawn) [Example 198]	22.2 nM		34.38%		
CC(C)(C(=O)Nc1nc(-c2cccc3ccccc23)cs1)C1c2ccccc2-c2ccccc21 [Example 19]				52.7%	
CC(C)(C(=O)Nc1nncs1)C1c2ccccc2Oc2nc(N3CCCC3)ccc21 (stereo not drawn) [Example 130]		111 nM		31.5%	
COC[C@H]1CCCN1C(=O)c1ccc(-c2ccc3c(n2)Oc2ccccc2[C@@H]3C(C)(C)C(=O)Nc2nncs2)cc1Cl [Example 330]		21.9 nM		60.6%	
Cc1ccc(-c2csc(NC(=O)C(C)(C)C3c4ccccc4Sc4ccccc43)n2)c2ccccc12 [Example 7]		303 nM		64.9%	
CC(C)(C(=O)Nc1nc(-c2ccc(F)c3ccccc23)cs1)C1c2ccccc2Oc2ccccc21 [Example 32]		302 nM		67.6%	
CC(C)(C(=O)Nc1nc(Cc2ccc(-c3cn[nH]c3)cc2)cs1)C1c2ccccc2Oc2ccccc21 [Example 41]		5.82 nM		73.8%	
CC(C)(C(=O)Nc1nncs1)C1c2ccccc2Oc2nc(-c3ccc(N)cc3)ccc21 (stereo not drawn) [Example 200]	134 nM		53.76%		
COc1ccc2c(c1)Oc1ccccc1[C@H]2C(C)(C)C(=O)Nc1nc(Cc2ccc(-c3cccnc3)cc2)cs1 [Example 55]		21.5 nM		75.5%	
CC(C)(C(=O)Nc1nncs1)C1c2ccccc2Oc2cc(OC(=O)NC3CCCCC3)ccc21 (stereo not drawn) [Example 373]	32.8 nM			45.6%	
CC(C)(C(=O)Nc1nncs1)[C@H]1c2ccccc2Oc2nc(-c3ccc(C(=O)N4CCOCC4)c(F)c3)ccc21 [Example 327]	8.93 nM		59.45%		

SMILES	EC50 (Cellular Transrepression Assay)	EC50 [2]	AP-1 Max % inh (Cellular Transrepression Assay) (Cellular Transrepression Assay)	Emax [1]	EC50 (Homo sapiens, A549, read-out: AP-1 EC50, nM (Cellular Transrepression Assay))
CC(=O)N1CCN(C(=O)c2ccc(-c3ccc4c(n3)Oc3ccccc3[C@@H]4C(C)(C)C(=O)Nc3nncs3)cc2F)CC1 [Example 324]		431 nM		54.9%	
COc1ccc(Cc2csc(NC(=O)C(C)(C)C3c4ccccc4Oc4ccccc43)n2)cc1 [Example 33]		31.8 nM		55.2%	
CCN(CC)C(=O)c1ccc(-c2ccc3c(n2)Oc2ccccc2[C@@H]3C(C)(C)C(=O)Nc2nncs2)cc1Cl [Example 263]		15.4 nM		58%	
CCSc1ccc(-c2ccc3c(n2)Oc2ccccc2C3C(C)(C)C(=O)Nc2nncs2)cc1 (stereo not drawn) [Example 226]	18.1 nM		49.05%		
Cc1ccc(-c2ccc3c(n2)Oc2ccccc2C3C(C)(C)C(=O)Nc2nncs2)cc1 (stereo not drawn) [Example 170]	182 nM		44.12%		
CC(O)c1ccc(-c2ccc3c(n2)Oc2ccccc2C3C(C)(C)C(=O)Nc2nncs2)cc1 (mixture of isomers) [Example 239]	12.4 nM		44.85%		
CNC(=O)Oc1ccc2c(c1)Oc1ccccc1C2C(C)(C)C(=O)Nc1nncs1 (stereo not drawn) [Example 386]				34.3%	89 nM
CCCOc1ccc(-c2ccc3c(n2)Oc2ccccc2C3C(C)(C)C(=O)Nc2nncs2)cc1F (stereo not drawn) [Example 230]	550 nM		52.33%		
CC(C)(C)c1ccc(-c2ccc3c(n2)Oc2ccccc2C3C(C)(C)C(=O)Nc2nncs2)cc1 (stereo not drawn) [Example 207]	32.6 nM		37.96%		
CN(C)C(=O)c1ccc(-c2ccc3c(c2)Oc2ccccc2C3C(C)(C)C(=O)Nc2nncs2)nc1 (stereo not drawn) [Example 102]		58 nM		45%	
CCCCc1ccc(-c2ccc3c(n2)Oc2ccccc2C3C(C)(C)C(=O)Nc2nncs2)cc1 (stereo not drawn) [Example 212]	19.6 nM		63.05%		
CC(C)(C(=O)Nc1nncs1)[C@H]1c2ccccc2Oc2nc(-c3ccc(C(=O)N4CCOCC4)cc3)ccc21 [Example 257]	12.4 nM		63.96%		
CC(C)(C(=O)Nc1nc(Cc2ccc(-c3ccncc3)cc2)cs1)C1c2ccccc2S(=O)(=O)c2ccccc21 [Example 10]		16.8 nM		86.5%	
COc1ccc2c(c1)Oc1ccccc1[C@@H]2C(C)(C)C(=O)Nc1nc(Cc2ccc(-c3ccncc3)cc2)cs1 [Example 58]		3.71 nM		70%	
CC(C)(C(=O)Nc1nncs1)[C@H]1c2ccccc2Oc2nc(N3CCC4(CC3)OCCO4)ccc21 [Example 139]		95.5 nM		26.8%	
Cc1nnc(NC(=O)C(C)(C)C2c3ccc(-c4ccc(C(=O)N5CCOCC5)cc4)nc3Oc3c(F)cccc32)s1 (stereo not drawn) [Example 163]		4.9 nM		64.4%	
